Data from the supplement of paper PMC10307832.

Legend:
Experiment in all cases: relative viability (nuclei count vs DMSO), 5 days (fraction); higher = more cells survive
Imatinib + Lapatinib = compound: Cc1ccc(NC(=O)c2ccc(CN3CCN(C)CC3)cc2)cc1Nc1nccc(-c2cccnc2)n1 [Imatinib] + CS(=O)(=O)CCNCc1ccc(-c2ccc3ncnc(Nc4ccc(OCc5cccc(F)c5)c(Cl)c4)c3c2)o1 [Lapatinib] (partner 2 µM)
Procedure, shortened: (§1)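 For relative viability, nuclei counts in treated wells were divided by those in vehicle wells. Lung cancer cell lines had been pin-tool dosed in 1536-well plates the day after seeding and cultured for 5 days, then fixed and stained in one step (final 0.05% Triton X-100, 1% formaldehyde, 1 ug/ml Hoechst) and imaged at 4×. Doses were one drug alone or a fixed anchor-drug dose plus five library-drug doses (not always all listed) in √10 steps, and values are duplicate-plate medians.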

Imatinib + Dasatinib = compound: Cc1ccc(NC(=O)c2ccc(CN3CCN(C)CC3)cc2)cc1Nc1nccc(-c2cccnc2)n1 [Imatinib] + Cc1nc(Nc2ncc(C(=O)Nc3c(C)cccc3Cl)s2)cc(N2CCN(CCO)CC2)n1 [Dasatinib] (partner 0.075 µM)
Procedure, shortened: as §1

Imatinib + OSI-027 = compound: Cc1ccc(NC(=O)c2ccc(CN3CCN(C)CC3)cc2)cc1Nc1nccc(-c2cccnc2)n1 [Imatinib] + COc1cccc2cc(-c3nc([C@H]4CC[C@H](C(=O)O)CC4)n4ncnc(N)c34)[nH]c12 [OSI-027] (partner 0.5 µM)
Procedure, shortened: as §1

Imatinib + Decitabine = compound: Cc1ccc(NC(=O)c2ccc(CN3CCN(C)CC3)cc2)cc1Nc1nccc(-c2cccnc2)n1 [Imatinib] + Nc1ncn([C@H]2C[C@H](O)[C@@H](CO)O2)c(=O)n1 [Decitabine] (partner 2 µM)
Procedure, shortened: as §1

Cell Line | relative viability (Imatinib + Lapatinib; first compound 0.02 µM) | relative viability (Imatinib + Lapatinib; first compound 0.06325 µM) | relative viability (Imatinib + Lapatinib; first compound 0.2 µM) | relative viability (Imatinib + Lapatinib; first compound 0.6325 µM) | relative viability (Imatinib + Lapatinib; first compound 2 µM) | relative viability (Imatinib + Dasatinib; first compound 0.02 µM) | relative viability (Imatinib + Dasatinib; first compound 0.06325 µM) | relative viability (Imatinib + Dasatinib; first compound 0.2 µM) | relative viability (Imatinib + Dasatinib; first compound 0.6325 µM) | relative viability (Imatinib + Dasatinib; first compound 2 µM) | relative viability (Imatinib + OSI-027; first compound 0.02 µM) | relative viability (Imatinib + OSI-027; first compound 0.06325 µM) | relative viability (Imatinib + OSI-027; first compound 0.2 µM) | relative viability (Imatinib + OSI-027; first compound 0.6325 µM) | relative viability (Imatinib + OSI-027; first compound 2 µM) | relative viability (Imatinib + Decitabine; first compound 0.02 µM) | relative viability (Imatinib + Decitabine; first compound 0.06325 µM) | relative viability (Imatinib + Decitabine; first compound 0.2 µM) | relative viability (Imatinib + Decitabine; first compound 0.6325 µM) | relative viability (Imatinib + Decitabine; first compound 2 µM)
NCI-H661 | 0.434 | 0.296 | 0.546 | 0.19 | 0.481 | 1.09 | 0.57 | 0.753 | 0.958 | 0.769 | 0.738 | 0.818 | 0.802 | 0.645 | 0.695 | 0.597 | 0.592 | 0.532 | 0.585 | 0.613
LC-2-ad | 0.933 | 0.886 | 0.884 | 1.02 | 0.935 | 0.603 | 0.545 | 0.461 | 0.484 | 0.588 | 0.788 | 0.623 | 0.822 | 0.833 | 0.929 | 0.816 | – | 0.948 | 0.824 | 0.759
PC-3 [JPC-3] | 0.503 | – | 0.48 | 0.462 | 0.431 | 1.1 | – | 0.955 | 0.931 | 0.778 | 0.792 | – | 0.854 | 0.877 | 0.711 | 0.861 | – | – | 0.776 | 0.84
NCI-H1792 | 0.859 | 1.08 | 0.954 | 0.942 | 0.838 | 0.847 | 0.429 | 0.769 | 0.596 | 0.666 | 0.84 | 0.549 | 0.697 | 0.162 | 0.673 | 0.573 | 0.496 | 0.576 | – | 0.449
